The text below walks through data of PubChem BioAssay AID264 (DTP/NCI, 2004).

Structures are written as SMILES. Records with an inconclusive call do not appear.

The test system of the assay is nude mice, LX-1 lung xenograft intrarenal, tumor weight T/C. Put plainly: NCI In Vivo Anticancer Drug Screen. Data for tumor model Human Lung LX-1 Xenograft (intrarenal inoculation) in NU/NU Swiss (nude) mice. The note with it: endpoint: mean tumor weight change, higher = larger tumour. The method, boiled down:
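Activity was scored by measuring tumors in treated animals and in vehicle controls, then reporting the treated result as a fraction of the control result.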

Setting [1] is: dose: 37.5 mg/kg/injection, schedule: Q04DX003 (sc), vehicle: saline with Tween-80.
Setting [2] is: dose: 75.0 mg/kg/injection, schedule: Q04DX003 (sc), vehicle: saline with Tween-80.
Where [3] appears, read: dose: 150.0 mg/kg/injection, schedule: Q04DX003 (sc), vehicle: saline with Tween-80.
Where [4] appears, read: dose: 300.0 mg/kg/injection, schedule: Q04DX003 (sc), vehicle: Klucel (hydroxypropylcellulose) (HPC).
The mark [5] stands for this setting: dose: 600.0 mg/kg/injection, schedule: Q04DX003 (sc), vehicle: Klucel (hydroxypropylcellulose) (HPC).
The mark [6] stands for this setting: dose: 1200.0 mg/kg/injection, schedule: Q04DX003 (sc), vehicle: Klucel (hydroxypropylcellulose) (HPC).
Where [7] appears, read: dose: 300.0 mg/kg/injection, schedule: Q04DX003 (sc), vehicle: saline with Tween-80.
The mark [8] stands for this setting: dose: 150.0 mg/kg/injection, schedule: Q04DX003 (sc), vehicle: Klucel (hydroxypropylcellulose) (HPC).
[9] abbreviates: dose: 100.0 mg/kg/injection, schedule: Q01DX010 (sc), vehicle: saline.
[10] abbreviates: dose: 200.0 mg/kg/injection, schedule: Q01DX010 (sc), vehicle: saline.
The mark [11] stands for this setting: dose: 400.0 mg/kg/injection, schedule: Q01DX010 (sc), vehicle: saline.
Setting [12] is: dose: 2400.0 mg/kg/injection, schedule: Q04DX003 (sc), vehicle: Klucel (hydroxypropylcellulose) (HPC).

For `CO[C@H](C(=O)[C@@H](O)[C@@H](C)O)[C@@H]1Cc2cc3cc(OC4CC(OC5CC(O)C(O)C(C)O5)C(O)C(C)O4)c(C)c(O)c3c(O)c2C(=O)[C@H]1OC1CC(OC2CC(OC3CC(C)(O)C(O)C(C)O3)C(O)C(C)O2)C(O)C(C)O1` (stereo not given in full), the T/C (dose: 0.25 mg/kg/injection, schedule: Q01DX010 (sc), vehicle: saline) is 120 % of control; the T/C (dose: 0.25 mg/kg/injection, schedule: Q04DX003 (sc), vehicle: saline) is 76 % of control; the T/C (dose: 0.5 mg/kg/injection, schedule: Q04DX003 (sc), vehicle: saline) is 87 % of control; the T/C (dose: 0.75 mg/kg/injection, schedule: Q04DX003 (sc), vehicle: saline) is 101 % of control; the T/C (dose: 1.0 mg/kg/injection, schedule: Q04DX003 (sc), vehicle: saline) was 96 % of control; the T/C (dose: 1.5 mg/kg/injection, schedule: Q04DX003 (sc), vehicle: saline) is 78 % of control. Further, the T/C reads like this: (dose: 2.0 mg/kg/injection, schedule: Q01DX010 (sc), vehicle: saline) -51 % of control; (dose: 2.0 mg/kg/injection, schedule: Q04DX003 (sc), vehicle: saline) 20 % of control; (dose: 3.0 mg/kg/injection, schedule: Q04DX003 (sc), vehicle: saline) 40 % of control.

With `c1ccc2c(c1)-c1ccccc1C1NC21` (stereo not given), the T/C was 82 % of control under setting [1], 56 % of control under setting [2] and 45 % of control under setting [3].

As for `C=C[Si]12OCCN(CCO1)CCO2`, the T/C runs as follows: under setting [4], 250 % of control; under setting [5], 212 % of control; under setting [6], 163 % of control.

On to `CN(Cc1cnc2nc(N)nc(N)c2n1)c1ccc(C(=O)N[C@@H](CCC(=O)O)C(=O)O)cc1`, for which the T/C is, setting by setting: (dose: 0.5 mg/kg/injection, schedule: Q01DX010 (sc), vehicle: sodium bicarbonate) 74 % of control; (dose: 1.0 mg/kg/injection, schedule: Q01DX010 (sc), vehicle: sodium bicarbonate) 87 % of control; (dose: 2.0 mg/kg/injection, schedule: Q01DX010 (sc), vehicle: sodium bicarbonate) 18 % of control.

As to `CN=C(NC#N)NCCSCc1nc[nH]c1C`, the T/C is, setting by setting: under setting [4], 81 % of control; under setting [5], 66 % of control; under setting [6], 73 % of control.

With `ClCC[Se](Cl)(Cl)c1ccccc1`, the T/C runs as follows: (dose: 12.5 mg/kg/injection, schedule: Q04DX003 (sc), vehicle: saline) 92 % of control; (dose: 25.0 mg/kg/injection, schedule: Q04DX003 (sc), vehicle: saline) 70 % of control; (dose: 50.0 mg/kg/injection, schedule: Q04DX003 (sc), vehicle: saline) 46 % of control.

Regarding `COC1CC(C)C(OC)c2cc(O)cc(c2O)NC(=O)/C(C)=C/C=C\C(C)C(OC(N)=O)/C(C)=C\C(C)C1OC` (stereo not given), the T/C is, setting by setting: (dose: 25.0 mg/kg/injection, schedule: Q04DX003 (sc), vehicle: saline + alcohol) 86 % of control; (dose: 50.0 mg/kg/injection, schedule: Q04DX003 (sc), vehicle: saline + alcohol) 93 % of control; (dose: 100.0 mg/kg/injection, schedule: Q04DX003 (sc), vehicle: saline + alcohol) 82 % of control.

Regarding `COC(=O)C(F)C(Br)C(=O)OC` (stereo not given), the T/C is, setting by setting: (dose: 18.75 mg/kg/injection, schedule: Q04DX003 (sc), vehicle: saline with Tween-80) 91 % of control; under setting [1], 111 % of control; under setting [2], 90 % of control.

Turning to `c1cc[c]([Sn]([NH]c2ncnc3[nH]cnc23)([NH]c2ncnc3[nH]cnc23)[c]2ccccc2)cc1`, the T/C reads like this: (dose: 300.0 mg/kg/injection, schedule: Q04DX003 (sc), vehicle: suspension in saline) 85 % of control; (dose: 600.0 mg/kg/injection, schedule: Q04DX003 (sc), vehicle: suspension in saline) 84 % of control; (dose: 1200.0 mg/kg/injection, schedule: Q04DX003 (sc), vehicle: suspension in saline) 82 % of control; (dose: 2400.0 mg/kg/injection, schedule: Q04DX003 (sc), vehicle: suspension in saline) 64 % of control.

As for `OCCCN1CCCCC1CO` (stereo not given), where the note is “dose: 200.0 mg/kg/injection, schedule: Q04DX003 (sc), vehicle: saline”, the T/C was 98 % of control.

Turning to `COC(=Nc1ccccc1)SSC(C)C`, the T/C is 120 % of control under setting [7]; 94 % of control (dose: 600.0 mg/kg/injection, schedule: Q04DX003 (sc), vehicle: saline with Tween-80); 107 % of control (dose: 1200.0 mg/kg/injection, schedule: Q04DX003 (sc), vehicle: saline with Tween-80).

As to `Cc1ccc(S(=O)(=O)N/N=C/C(Br)=C(/Br)C(=O)O)cc1`, the T/C under setting [8] was 66 % of control, the T/C under setting [4] is 58 % of control and the T/C under setting [5] is 43 % of control.

On to `CCCC(=O)Nc1ncnc2c1ncn2C1OC2COP(=O)(O)OC2C1OC(=O)CCC` (stereo not given), for which the T/C by setting is: under setting [9], 122 % of control; under setting [10], 92 % of control; under setting [11], 81 % of control.

As for `CCCC(=O)O`, the T/C is, setting by setting: under setting [9], 103 % of control; under setting [10], 77 % of control; under setting [11], 71 % of control.

On to `CCOC(=O)c1ccc(NC(=O)Nc2nccs2)cc1`, for which the T/C reads like this: (dose: 100.0 mg/kg/injection, schedule: Q01DX010 (sc), vehicle: saline with Tween-80) 99 % of control; (dose: 200.0 mg/kg/injection, schedule: Q01DX010 (sc), vehicle: saline with Tween-80) 107 % of control; (dose: 400.0 mg/kg/injection, schedule: Q01DX010 (sc), vehicle: saline with Tween-80) 92 % of control; (dose: 800.0 mg/kg/injection, schedule: Q01DX010 (sc), vehicle: saline with Tween-80) 66 % of control.

Consider `CC1OC(=O)C(C(C)C)NC(=O)C(C(C)C)OC(=O)C(C(C)C)NC(=O)C(C)OC(=O)C(C(C)C)NC(=O)C(C(C)C)OC(=O)C(C(C)C)NC(=O)C(C)OC(=O)C(C(C)C)NC(=O)C(C(C)C)OC(=O)C(C(C)C)NC1=O` (stereo not given), for which the T/C reads like this: (dose: 5.0 mg/kg/injection, schedule: Q01DX010 (ip), vehicle: saline with Tween-80) 44 % of control; (dose: 5.0 mg/kg/injection, schedule: Q01DX010 (sc), vehicle: saline with Tween-80) 107 % of control; (dose: 10.0 mg/kg/injection, schedule: Q01DX010 (ip), vehicle: saline with Tween-80) 28 % of control; (dose: 16.66 mg/kg/injection, schedule: Q04DX003 (ip), vehicle: saline with Tween-80) 56 % of control; (dose: 16.66 mg/kg/injection, schedule: Q04DX003 (sc), vehicle: saline with Tween-80) 179 % of control; (dose: 33.33 mg/kg/injection, schedule: Q04DX003 (sc), vehicle: saline with Tween-80) 94 % of control. For the same compound, the T/C by setting is: (dose: 66.65 mg/kg/injection, schedule: Q04DX003 (ip), vehicle: saline with Tween-80) 37 % of control; (dose: 66.65 mg/kg/injection, schedule: Q04DX003 (sc), vehicle: saline with Tween-80) 119 % of control.

Turning to `Nc1nc2c(C(=O)N3CCCC3)nnn2c2ccccc12`, the T/C under setting [3] is 55 % of control.

`COc1ccc2[nH]c3ccc4cc[n+](CCN5CCC(C6CCN(CC[n+]7ccc8ccc9[nH]c%10ccc(OC)cc%10c9c8c7)CC6)CC5)cc4c3c2c1`: the T/C is, setting by setting: under setting [8], 88 % of control; under setting [4], 96 % of control; under setting [5], 83 % of control; under setting [6], 93 % of control.

Take `CC(C)(C)C1CCCCC1`: the T/C reads like this: under setting [4], 94 % of control; under setting [5], 68 % of control; under setting [6], 59 % of control; under setting [12], 46 % of control.

As for `O=C(O)C1CC1.[Ag]`, the T/C runs as follows: under setting [1], 63 % of control; under setting [2], 57 % of control; under setting [3], 62 % of control; under setting [7], 54 % of control.

For the compound `CN(C)CCN1C(=O)c2cccc3cc(N)cc(c23)C1=O`, the T/C (dose: 16.0 mg/kg/injection, schedule: Q04DX003 (sc), vehicle: saline with Tween-80) is 157 % of control and the T/C (dose: 64.0 mg/kg/injection, schedule: Q04DX003 (sc), vehicle: saline with Tween-80) was 113 % of control.

`CCN(CC)CCOC(=O)Cc1cccc2c(=O)cc(-c3ccccc3)oc12`: the T/C reads like this: (dose: 100.0 mg/kg/injection, schedule: Q04DX003 (sc), vehicle: saline with Tween-80) 112 % of control; (dose: 200.0 mg/kg/injection, schedule: Q04DX003 (sc), vehicle: saline with Tween-80) 44 % of control.

Take `OC1CCCC2CCC[N-]C12.OC1CCCC2CCC[N-]C12.[Mn+2]` (stereo not given): the T/C under setting [4] was 95 % of control, the T/C under setting [5] was 52 % of control, the T/C under setting [6] was 46 % of control and the T/C under setting [12] was 63 % of control.
